Results reported in publication PMC1839085, “Crystal structures of an Extracytoplasmic Solute Receptor from a TRAP transporter in its open and closed forms reveal a helix-swapped dimer requiring a cation for α-keto acid binding” (BMC Structural Biology, 2007).

Target: T1, TakP (Cereibacter sphaeroides, UniProt Q3J1R2)
T1 construct: His6 (C); made in house; host or cells: E. coli BL21
Experiment: Tryptophan fluorescence quenching titration of ligand binding to TakP
Parameters: species or system Rhodobacter sphaeroides
Details: for Binding to purified proteins from the SmoM family (qualitative): purified proteins from the SmoM (TakP) family, stated as [15] and this study, method not specified
Description: We overexpressed and purified TakP from Rhodobacter sphaeroides and confirmed its ability to bind a range of α-keto acids. A general feature of ESRs is that substrate binding is accompanied by a diminished fluorescence from some tryptophan residue(s) as a result of the conformational changes induced by the binding. […] This was accompanied by a shift of the emission peak: the difference spectrum between the unliganded and liganded (quenched) protein has its maximum around 345 nm, whereas the bulk fluorescence from the unliganded form peaks at 335 nm. […] There are 10 Trp residues in the TakP sequence. From the structural information describe below, it turned out that one of these Trp residues (Trp 215) is directly interacting with the ligand when present, so that its fluorescence may be strongly quenched as a result. Two others undergo a significant displacement during the open/closed transition, which may also affect their fluorescence properties. Clearly, the observed amplitude of the fluorescence quenching caused by ligand binding (~30%) implies that these sensitive residues have for some reason a larger relative contribution to the fluorescence emission than the other tryptophans of the protein.
Because of the high binding affinity of these, we had to use a sufficiently low protein concentration to obtain an accurate determination of the dissociation constant, Kd. If the protein concentration is below the Kd, allowing the presence of a significant fraction of free substrate during the titration, the Kd can be determined from a fit of the equation:
F/F0=1−ΔF×[PL]=1−ΔF×0.5(Kd+[P0]+[L0]−(Kd+[P0]+[L0])^2−4[P0][L0]) MathType@MTEF@5@5@+=feaafiart1ev1aaatCvAUfKttLearuWrP9MDH5MBPbIqV92AaeXatLxBI9gBaebbnrfifHhDYfgasaacH8akY=wiFfYdH8Gipec8Eeeu0xXdbba9frFj0=OqFfea0dXdd9vqai=hGuQ8kuc9pgc9s8qqaq=dirpe0xb9q8qiLsFr0=vr0=vr0dc8meaabaqaciaacaGaaeqabaqabeGadaaakeaacqWGgbGrcqGGVaWlcqWGgbGrdaWgaaWcbaGaeGimaadabeaakiabg2da9iabigdaXiabgkHiTiabfs5aejabdAeagjabgEna0kabcUfaBjabdcfaqjabdYeamjabc2faDjabg2da9iabigdaXiabgkHiTiabfs5aejabdAeagjabgEna0kabicdaWiabc6caUiabiwda1maabmaabaGaem4saS0aaSbaaSqaaiabdsgaKbqabaGccqGHRaWkcqGGBbWwcqWGqbaudaWgaaWcbaGaeGimaadabeaakiabc2faDjabgUcaRiabcUfaBjabdYeamnaaBaaaleaacqaIWaamaeqaaOGaeiyxa0LaeyOeI0YaaOaaaeaacqGGOaakcqWGlbWsdaWgaaWcbaGaemizaqgabeaakiabgUcaRiabcUfaBjabdcfaqnaaBaaaleaacqaIWaamaeqaaOGaeiyxa0Laey4kaSIaei4waSLaemitaW0aaSbaaSqaaiabicdaWaqabaGccqGGDbqxcqGGPaqkdaahaaWcbeqaaiabikdaYaaakiabgkHiTiabisda0iabcUfaBjabdcfaqnaaBaaaleaacqaIWaamaeqaaOGaeiyxa0Laei4waSLaemitaW0aaSbaaSqaaiabicdaWaqabaGccqGGDbqxaSqabaaakiaawIcacaGLPaaaaaa@7441@
Here, F is the fluorescence amplitude and F0 its value in the absence of ligand. Δ F is the normalized amplitude of the saturated quenching, [PL] is the concentration of liganded protein, [P0] and [L0] are the concentrations of the total protein and ligand, respectively. The protein concentration was determined from its 280 nm absorbance and pertains here to the monomeric unit (see below).
Fluorescence spectroscopy was performed using a Varian Cary Eclipse spectrofluorimeter with an excitation wavelength of 290 nm. The emission spectra were recorded between 300 and 500 nm. Ligand binding was determined from the partial quenching of this fluorescence emission. To gain a more accurate determination of the dissociation constant, the protein concentration was lowered down to 50 nM (in 50 mM Tris/HCl, pH 7) and the amplitude of the fluorescence emission was computed from an integration of the emission over the 315 nm to 360 nm range.

T1 sequence (Q3J1R2 27-365): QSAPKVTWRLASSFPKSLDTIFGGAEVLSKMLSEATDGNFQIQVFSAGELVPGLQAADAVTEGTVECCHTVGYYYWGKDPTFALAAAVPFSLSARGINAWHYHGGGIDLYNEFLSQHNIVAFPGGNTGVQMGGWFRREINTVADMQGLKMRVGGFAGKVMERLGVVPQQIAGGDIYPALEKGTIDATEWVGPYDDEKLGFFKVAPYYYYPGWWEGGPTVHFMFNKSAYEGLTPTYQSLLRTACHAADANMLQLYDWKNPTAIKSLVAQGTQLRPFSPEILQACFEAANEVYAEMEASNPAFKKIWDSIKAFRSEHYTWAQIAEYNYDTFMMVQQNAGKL

Row | Compound | Kd [nM] | further results
1 | O=C(O)CCC(=O)C(=O)O [α-ketoglutarate] | – | Binding to TakP (qualitative) (fluorescence quenching titration): No binding
2 | CC(=O)C(=O)O [Pyruvate, pyruvate] | 270 ± 20 | –
3 | CC(C)CC(=O)C(=O)O [4-Methyl-2-Oxovalerate] | 720 ± 55 | –
4 | OC[C@@H](O)[C@@H](O)[C@H](O)[C@@H](O)CO [sorbitol] | – | Binding to purified proteins from the SmoM family (qualitative): neither bind
5 | CCC(=O)C(=O)O [Oxobutyrate, oxobutyrate] | 43 ± 4 | –
6 | CCCC(=O)C(=O)O [Oxovalerate, oxovalerate] | 18 ± 3 | –
7 | OC[C@@H](O)[C@@H](O)[C@H](O)[C@H](O)CO [mannitol] | – | Binding to purified proteins from the SmoM family (qualitative): neither bind
